Entries after “also recorded” stand apart in the source; their conditions may differ.
Assays:
EcoRI [1] = biological target: T1, EcoRI (Escherichia coli, UniProt P00642); assay: Peptide inhibitor assay (PIA): EcoRI digestion of pCRII-TOPO-OR23 plasmid, fluorescence intensity of the excised OR23 band on agarose gel; assay type: biochemical; conditions: for level of inhibitory effect on EcoRI (in words) / inhibitory effect compared with the original peptide (in words) / significance of inhibition of EcoRI activity versus no peptide / relative fluorescence intensity of excised OR23 fragment: 3 h; for level of inhibitory effect on EcoRI (in words): EcoRI:peptide 1:500, relative fluorescence intensity; for inhibitory effect compared with the original peptide (in words): EcoRI:peptide 1:500, randomized peptides by Student's t-test versus each endogenous BP; for significance of inhibition of EcoRI activity versus no peptide: EcoRI:peptide 1:500, Dunnett's test versus no peptide; for relative fluorescence intensity of excised OR23 fragment: relative to no peptide, EcoRI:peptide 1:500 molar ratio, 37 °C, 0.015 mM Mg2+, mean of n = 3
T1 construct: The first M is removed after translation in this protein; purchased New England Biolabs
Protocol: Peptide synthesis was performed by GenScript Japan (Tokyo, Japan). All peptides were confirmed to be more than 75% pure via high-performance liquid chromatography (HPLC) and to have theoretical molecular weights via mass spectrometry (MS). The peptides were dissolved in DMSO (dimethyl sulfoxide) and were prepared at 5.59 × 10^−9 mol/μL (5.59 mM). When 1.0 μL of this peptide mixture was mixed in a tube for the inhibition of EcoRI catalytic activity, the molar ratio of EcoRI to peptide was 1:500. This concentration in molar equivalence was used throughout this study unless otherwise noted.
Purified and concentrated EcoRI (20,000 U/mL, approximately 338 μg/mL, 1.12 × 10^−[…]) was obtained from New England Biolabs (Ipswich, MA, USA). To quantify and visualize the inhibitory effects of the peptides, the enzymatic reaction conditions were set so that at least three hours of incubation were required to completely digest the substrate plasmid DNA with EcoRI. To do so, we used a low Mg^2+ concentration (0.015 mM) in the reaction mixture in contrast to the optimum concentration of Mg^2+ for EcoRI (10 mM).
(§1) All master solutions and samples were prepared on ice. A single reaction tube contained the following common ingredients: autoclaved DNase-free RNase-free deionized H2O (12.5 μL) (Nippon Gene), 10× NE Buffer Mg^2+-free (2.0 μL), pCRII-TOPO-OR23 plasmid DNA (2.0 μL of 40 ng/μL solution), MgCl2 (1.5 μL of 0.20 mM solution), and EcoRI (1.0 μL). A master solution containing these ingredients without DMSO or a peptide was first prepared for the number of sample tubes. The master solution was aliquoted into 1.5 mL spin tubes (19.0 μL per tube). Then, 1.0 μL of DMSO or a peptide sample was added, and the mixture was incubated at 37 °C. A negative control with DMSO but without a peptide (“no peptide” control) was run in every assay. When the digestion efficiency was compared, another negative control with autoclaved DNase-free RNase-free H2O without EcoRI was prepared. After the reaction, the samples were quickly cooled on ice for ten minutes and then stored at −80 °C until agarose gel electrophoresis. The above protocol was conducted for all peptides (including BP19.5, BP19.5N, and BP19.5C) used in the present study unless otherwise noted.
To quantify EcoRI activity after incubation of a reaction mixture, digested pCRII-TOPO-OR23 plasmid DNA was examined via agarose gel electrophoresis. We first prepared a 25 mL solution of 1.0% agarose (Nippon Gene) in TAE (Tris-acetate-EDTA) buffer (Promega, Madison, WI, USA) to produce an agarose gel. An ethidium bromide solution (0.5 μL of 10 mg/mL) (Promega) was added before gelation. After incubation with EcoRI, the fluorescence intensity of the band of the excised OR23 fragment was measured via an ImageQuant LAS4000 (GE Healthcare Japan, Tokyo, Japan) with the following conditions: “Exposure Type”: Precision; “Exposure Time”: Manual 1/8 sec; “Sensitivity/Resolution”: Standard; and “Fluorescent Method”: Epi illumination; EtBr; UV (Trans UV) light; 6-5DF50 Filter; and F2.8 Iris.
For statistical analyses, Student’s t-test (unpaired and bi-sided), Dunnett’s test, and Pearson correlation analysis were performed via Microsoft Excel (Office 365) and JSTAT (Yokohama, Japan). The Dunnett’s test was performed for each experimental group that was examined simultaneously in the laboratory, in comparison to the “no peptide” control group that was examined simultaneously. The repeated measure mode of the Dunnett’s test was used on the assumption that there was no interaction between samples.

EcoRI [2] = biological target: T1, EcoRI; assay: Nonspecific nuclease activity of EcoRI reaction mixture with peptide (plasmid DNA degradation); assay type: biochemical; conditions: EcoRI plus peptide 1:500, 3 h, n = 3
Protocol: A recombinant plasmid, pCRII-TOPO (Invitrogen, Waltham, MA, USA), containing a PCR fragment of the full-length cDNA (978 bp) of the mouse odorant receptor OR23 [82, 83, 84, 85, 86] at the EcoRI cloning site (GAATTC) was used as a DNA substrate for EcoRI. […] This pCRII-TOPO-OR23 plasmid was prepared from TOP10F’ Escherichia coli (Invitrogen) using ATP Plasmid Mini Kit (ATP Biotech, Taipei, ROC). The plasmid solution was prepared at 40 ng/μL by adding autoclaved DNase-free RNase-free deionized H2O (Nippon Gene, Tokyo, Japan). The DNA concentrations were measured with a Qubit fluorometer (Invitrogen).
as §1
This reaction mixture containing EcoRI and BP19.5 appeared to degrade the plasmid DNA entirely. […] The DNA concentration at 3 h was 3.297 ± 0.006 ng/μL without any peptide in the reaction mixture and 0.332 ± 0.003 ng/μL with BP19.5, indicating a statistically significant difference (n = 3; unpaired bi-sided Student’s t-test; p = 1.6 × 10^−11). […] Therefore, BP19.5 and its derivatives are likely to cause EcoRI to become a nonspecific nuclease. In other words, BP19.5 was likely a specificity/activity modifier of EcoRI instead of an inhibitor.

T1 sequence (P00642 2-277): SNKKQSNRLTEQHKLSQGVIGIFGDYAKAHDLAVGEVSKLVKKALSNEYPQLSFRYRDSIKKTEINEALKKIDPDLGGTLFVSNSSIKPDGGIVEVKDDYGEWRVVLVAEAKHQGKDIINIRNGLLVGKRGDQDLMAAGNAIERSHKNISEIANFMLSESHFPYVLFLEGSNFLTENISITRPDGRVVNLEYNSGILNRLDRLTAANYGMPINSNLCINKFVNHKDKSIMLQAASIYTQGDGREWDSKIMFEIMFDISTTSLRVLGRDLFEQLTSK

Substance | level of inhibitory effect on EcoRI (in words) (EcoRI [1]; n = 3) | further results
VNHKDKSIMLQA [BP20.5] | did not show high inhibition | 
GIVEVK [BP9M] |  | inhibitory effect compared with the original peptide (in words) (EcoRI [1]; n = 3): more inhibitory than the original
DGLTPFSDVLGI [BP7R2] |  | inhibitory effect compared with the original peptide (in words) (EcoRI [1]; n = 3): significantly less inhibitory
IKKTEI [BP6N] |  | inhibitory effect compared with the original peptide (in words) (EcoRI [1]; n = 3): as inhibitory as the original BP6
VKDDYG [BP9C] | noninhibitory | 
SNKKQSNRLTEQHK [BP1] | reasonably inhibitory | significance of inhibition of EcoRI activity versus no peptide (EcoRI [1]; n = 3): significantly inhibitory
EWRVVLVAEAKHQG [BP10] | not very inhibitory | 
VGLILSTGDFDP [BP7R1] |  | inhibitory effect compared with the original peptide (in words) (EcoRI [1]; n = 3): as inhibitory as the original peptides
VEGQELAVKAHRWV [BP10R1] |  | inhibitory effect compared with the original peptide (in words) (EcoRI [1]; n = 3): significantly more inhibitory
EAKHQGKDIIN [BP10.5] | not very inhibitory | 
PINSNLCINK [BP19.5] |  | plasmid DNA degradation / nonspecific nuclease induction (agarose gel electrophoresis, in words) (EcoRI [2]): no DNA fragment or plasmid DNA was detected; DNA concentration at 3 h in the reaction mixture (EcoRI [2]; no peptide 3.297 ± 0.006): 0.332 ± 0.003 ng/µL
VVNLEYNSGILN [BP17.5] | not very inhibitory | 
STTSLRVLGRDLFE [BP24] | did not work well | 
NAIERSHKNIS [BP13.5] | not very inhibitory | 
NISEIA [BP14M] | noninhibitory | 
FVSNSSIKPDGG [BP8] | noninhibitory | inhibitory effect, fluorescence intensity versus incubation time (in words) (EcoRI [1]; time course until 5 h, EcoRI:peptide 1:500, compared with no peptide, n = 3): relatively low inhibitory effects
FRYRDSIKKTEI [BP5.5] | least inhibitory; also recorded: noninhibitory | 
NEYPQLAFRYRDS [BP5] | highly inhibitory; also recorded: most effective | significance of inhibition of EcoRI activity versus no peptide (EcoRI [1]; n = 3): significantly inhibitory; relative fluorescence intensity of excised OR23 fragment (EcoRI [1]): less than 0.3
EQHKLSQGVIGI [BP2] | highly inhibitory; also recorded: most effective | significance of inhibition of EcoRI activity versus no peptide (EcoRI [1]; n = 3): significantly inhibitory; relative fluorescence intensity of excised OR23 fragment (EcoRI [1]): less than 0.3
DLMAAGNAIERS [BP13] | not very inhibitory | 
NGLLVG [BP12N] |  | inhibitory effect compared with the original peptide (in words) (EcoRI [1]; n = 3): more inhibitory than the original
LGRDLFEQLTSK [BP25] | especially notable; also recorded: most inhibitory; also recorded: most effective | relative fluorescence intensity of excised OR23 fragment (EcoRI [1]): less than 0.3
SHKNIS [BP14N] | noninhibitory | 
VIGIFGDYAKAHDL [BP3] | highly inhibitory; also recorded: most effective | significance of inhibition of EcoRI activity versus no peptide (EcoRI [1]; n = 3): significantly inhibitory; relative fluorescence intensity of excised OR23 fragment (EcoRI [1]): less than 0.3

From paper PMC11755562, “Peptide Inhibitor Assay for Allocating Functionally Important Accessible Sites Throughout a Protein Chain: Restriction Endonuclease EcoRI as a Model Protein System” (BioTech, 2024)
